From ChEMBL document CHEMBL4373743, “Selective apoptosis-inducing activity of synthetic hydrocarbon-stapled SOS1 helix with d-amino acids in H358 cancer cells expressing KRASG12C” (Eur J Med Chem, 2020)
Active and inactive are the calls of the source. No cut-off for these calls is given here. Bridge positions count the residues as written; N and C are the ends. Square brackets hold non-standard residues; d marks the D form. Peptide text beside a SMILES is read from it. S5 = C=CCCC[C@](C)(N)C(=O)O

What was measured:
[1] = system: GTPase KRas (Homo sapiens), P01116 [G12C]; test: Binding affinity to biotinylated N-terminal His6-tagged recombinant KRAS G12C mutant (unknown origin) assessed as association constant by BLI method
[2] = system: A549; test: Antiproliferative activity against human A549 cells harboring KRAS G12S mutant at 0.37 to 10 uM incubated for 24 hrs by MTT assay; assay type: functional, cell-based
[3] = system: GTPase KRas (Homo sapiens), P01116 [G12C]; test: Inhibition of mant-GDP bound N-terminal His6-tagged recombinant KRAS G12C mutant (unknown origin) by fluorescence based assay
[4] = system: GTPase KRas (Homo sapiens), P01116 [G12C]; test: Binding affinity to biotinylated N-terminal His6-tagged recombinant KRAS G12C mutant (unknown origin) assessed as dissociation constant by BLI method
[5] = system: NCI-H358; test: Antiproliferative activity against human NCI-H358 cells harboring KRAS G12C mutant incubated for 24 hrs by MTT assay; assay type: functional, cell-based
[6] = target: GTPase KRas (Homo sapiens, UniProt P01116, G12C); test: Binding affinity to biotinylated N-terminal His6-tagged recombinant KRAS G12C mutant (unknown origin) by BLI method
Chain of GTPase KRas (P01116 whole entry G12C): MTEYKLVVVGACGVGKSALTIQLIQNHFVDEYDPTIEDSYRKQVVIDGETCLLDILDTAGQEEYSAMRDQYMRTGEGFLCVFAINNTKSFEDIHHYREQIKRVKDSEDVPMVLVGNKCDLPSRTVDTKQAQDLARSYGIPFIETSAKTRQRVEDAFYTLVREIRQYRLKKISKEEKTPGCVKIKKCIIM

Chain of GTPase KRas (Homo sapiens), P01116 [G12C] (P01116 whole entry G12C): as above

CC[C@H](C)[C@H](NC(=O)CNC(=O)[C@H](Cc1ccccc1)NC(=O)[C@H](Cc1ccccc1)NC(=O)[C@H](CCCNC(=N)N)NC(=O)[C@H](CCCNC(=N)N)NC(C)=O)C(=O)N[C@@]1(C)CCC/C=C\CCC[C@@](C)(C(=O)N[C@@H](CC(C)C)C(=O)N[C@@H](CCCCN)C(=O)N[C@H](C(=O)N[C@@H](CCC(=O)O)C(=O)N[C@@H](CCC(=O)O)C(=O)NCC(=O)N[C@@H](CC(N)=O)C(=O)O)[C@@H](C)O)NC(=O)[C@H](CC(N)=O)NC(=O)[C@H]([C@@H](C)O)NC(=O)[C@H](CC(C)C)NC1=O
Ka [1]: 2.44 ×10³ /M.s
Activity [2]: inactive
inhibition [3]: Dose-dependent effect
Kdiss [4]: 1.17 ×10⁻¹ /s
Activity [5]: Dose-dependent effect
Kd [6]: 47.8 µM

CC[C@H](C)[C@H](NC(=O)CNC(=O)[C@H](Cc1ccccc1)NC(=O)[C@H](Cc1ccccc1)NC(=O)[C@H](CCCNC(=N)N)NC(=O)[C@H](CCCNC(=N)N)NC(C)=O)C(=O)N[C@@]1(C)CCC/C=C\CCC[C@@](C)(C(=O)N[C@@H](CC(C)C)C(=O)N[C@@H](CCCCN)C(=O)N[C@H](C(=O)N[C@@H](CCC(=O)O)C(=O)N[C@@H](CCC(=O)O)C(=O)NCC(=O)N[C@@H](CC(N)=O)C(=O)O)[C@@H](C)O)NC(=O)[C@H](CC(N)=O)NC(=O)[C@H](CC(=O)O)NC(=O)[C@H]([C@@H](C)O)NC(=O)[C@H](CC(C)C)NC1=O (Ac-RRFFGI[S5]LTDN[S5]LKTEEGN-OH; staple (Z) 7-12)
Ka [1]: 4.62 ×10³ /M.s
Kdiss [4]: 4.07 ×10⁻² /s
Kd [6]: 8.81 µM

CC[C@H](C)[C@H](NC(=O)CNC(=O)[C@H](Cc1ccccc1)NC(=O)[C@H](Cc1ccccc1)NC(=O)[C@H](CCCNC(=N)N)NC(=O)[C@H](CCCNC(=N)N)NC(C)=O)C(=O)N[C@@]1(C)CCC/C=C\CCC[C@@](C)(C(=O)N[C@@H](CC(C)C)C(=O)N[C@@H](CCCCN)C(=O)N[C@H](C(=O)N[C@@H](CCC(=O)O)C(=O)N[C@@H](CCC(=O)O)C(=O)NCC(=O)N[C@@H](CC(N)=O)C(=O)O)[C@@H](C)O)NC(=O)[C@H](CC(N)=O)NC(=O)[C@H]([C@@H](C)O)NC(=O)[C@H](CC(=O)O)NC(=O)[C@H](CC(C)C)NC1=O (Ac-RRFFGI[S5]LDTN[S5]LKTEEGN-OH; staple (Z) 7-12)
Ka [1]: 3.73 ×10³ /M.s
Kdiss [4]: 1.19 ×10⁻² /s
Kd [6]: 3.2 µM

CC[C@H](C)[C@H](NC(=O)CNC(=O)[C@H](Cc1ccccc1)NC(=O)[C@H](Cc1ccccc1)NC(=O)[C@H](CCCNC(=N)N)NC(=O)[C@H](CCCNC(=N)N)NC(C)=O)C(=O)N[C@@]1(C)CCC/C=C\CCC[C@@](C)(C(=O)N[C@@H](CC(C)C)C(=O)N[C@@H](CCCCN)C(=O)N[C@H](C(=O)N[C@@H](CCC(=O)O)C(=O)N[C@@H](CCC(=O)O)C(=O)NCC(=O)N[C@@H](CC(N)=O)C(=O)O)[C@@H](C)O)NC(=O)[C@H](CC(N)=O)NC(=O)[C@H]([C@@H](C)O)NC(=O)[C@H](CC(C)C)NC(=O)[C@H](CC(=O)O)NC1=O (Ac-RRFFGI[S5]DLTN[S5]LKTEEGN-OH; staple (Z) 7-12)
Ka [1]: 6.65 ×10³ /M.s
Kdiss [4]: 1.73 ×10⁻¹ /s
Kd [6]: 26.1 µM
